Laboratory results reported in US6096732A, “Steroid esters, process for their production and their pharmaceutical use” (Schering AG, priority 1996, dated 2000).

How the values were obtained:
[1] = type: physicochemical
Method: Solubility Studies of the Esters that are Mentioned in Examples 1 to 6
In the following table, the solubility of compounds 1 to 6 is depicted in comparison to unesterified reference compound 1 (Z)-6'-(4-cyanophenyl)-9,11α-dihydro-17β-hydroxy-17α-(3-hydroxy-1-propenyl)-4'H-naphtho[3',2',1':10,9,11]estra-4-en-3-one (Example 1 in DE-A 4216003). For solubility, the temperature is indicated in °C., in which 50 mg of substance is dissolved in 1 ml of a 1:4 benzyl benzoate/castor oil mixture.

[2] = system: NMU-induced breast tumor of rats; assay: Influence of the tumor growth in N-Methyl-N-nitrosourea (NMU) model in rats; type: in vivo, rat (Sprague-Dawley); conditions: p.o., 6 times per week, various dosages; vs. reference compound 3
Method: Influence of the Tumor Growth in N-Methyl-N-nitrosourea (NMU)--Model in Rats
The growth of the NUM-induced breast tumor of rats is largely dependent on estrogens and gestagens and less on prolactin. Estrogen and progesterone antagonists result in inhibiting tumor growth.
Female rats (Sprague-Dawley), 55 (±3) days old; at least 9 animals per group.
The animals receive 50 mg/kg of NMU on a one-time basis. Then, the animals are checked once a week by palpation for tumor development. About 6 to 8 weeks after NMU treatment, one or more tumors develop per animal. At a minimum size of 150 mm^2 /tumor/animal, treatment (6 times per week) begins with the test substance, the determination of body weight and tumor size (with the aid of a sliding gauge; once per week).
The results for compound 1 are graphically depicted in the following figures for various dosages in each case in comparison to the untreated control, an ovariectomy group as well as reference compound 3, (Z)-6'-(4-cyanophenyl)-9,11α-dihydro-17β-hydroxy-17α-[3-(1-oxo-2-methylpropoxy)-1-propenyl]-4'H-naphtho[3',2',1':10,9,11]estr-4-en-3-one. […] This is surprising because of the only slight structural differences. [drawing 5] Tumor-Inhibiting Action on the Hormone-Sensitive Human Breast Cancer Cell Line ZR-75.

[3] = type: physicochemical; remark: listed apart in the source
Method: Studies on Hydrolytic Stability of the Esters According to the Invention
The hydrolytic stability of the esters under strongly basic conditions can be used to assess whether the compounds have adequate stability under physiological conditions.
In each case, 10 mg of compounds 1, 3 and 4 was dissolved at 23° C. in 10 ml of dioxane and mixed with 1 ml of a 1N aqueous sodium hydroxide solution. In each case, 11 samples were drawn, acidified to pH 6 and the ester:alcohol ratio was determined per HPLC. In the graphic visualization,the portion of ester is depicted in percent as a function of the saponification period in hours.

[4] = system: human, tamoxifen-resistant ZR-75 breast cancer; assay: Tumor-inhibiting action on human, tamoxifen-resistant ZR-75 breast cancer in nude mice; type: in vivo; conditions: s.c., 8 weeks, vs. untreated control; graph only
Method: Breast cancer cell line ZR-75 is an estrogen- and progesterone receptor-positive human line, which can be transplanted serially in the thymic aplastic nude mouse. […] An underline that is used here developed a tamoxifen resistance after a prolonged treatment period.
Female nude/nude mice, 4 weeks old.
Formulation and Administration of Test Substances:
The test substances are dissolved in benzyl benzoate and castor oil (1+4), and the one-time dose is administered at a volume of 0.1 ml s.c. Treatment begins about 7 weeks after implantation (treatment of established tumors). The treatment time is at most 10 weeks.
The tumor fragments of several donor animals are implanted in the animals s.c. on both sides in the flanks. On the day of implantation and on day 60, all animals are implanted with a tamoxifen-releasing pellet (5 mg).
The mice are randomized 7 weeks after implantation of the tumors, and the treatment is begun and carried out for 8 weeks.
Tumor growth is determined by determination of the tumor surface area using a sliding gauge. The tumor surface area is calculated from the product of the longest diameter of the tumor and the diameter that is perpendicular to said longest diameter. At the end of the test, the animals are killed, the tumors are prepared outside and weighed.

[5] = system: breast cancer cell line ZR-75; conditions: standard treatment; cited from earlier work

For CC(C)CC(=O)OC/C=C\[C@]1(O)CC[C@H]2[C@@H]3CCC4=CC(=O)CC[C@@]45Cc4cc(-c6ccc(C#N)cc6)ccc4[C@@H](C[C@@]21C)[C@@H]35 [Compound 1, (Z)-6'-(4-Cyanophenyl)-9,11α-dihydro-17β-hydroxy-17α-[3-(1-oxo-3-methylbutoxy)-1-propenyl]-4'H-naphtho[3',2',1':10,9,11]estr-4-en-3-one], the “Solubility (temperature at which 50 mg of substance is dissolved in 1 ml)” value (shortened to “Solubility”) [1] was 50 °C, the tumor-inhibiting action [2] was “tumor-inhibiting action that is superior to that of reference compound 3” and the “stability compared to reference compound 3” value [3] was “significantly improved compared to reference compound 3”. The “stability under strongly basic conditions” value [3] was “very good stability” and the “inhibition of the course of growth of the tumors” value [4] was “inhibition of the course of growth of the tumors”.

In the case of CC(C)C(=O)OCC/C=C\[C@]1(O)CC[C@H]2[C@@H]3CCC4=CC(=O)CC[C@@]45Cc4cc(-c6ccc(C#N)cc6)ccc4[C@@H](C[C@@]21C)[C@@H]35 [Compound 2, (Z)-6'-(4-Cyanophenyl)-9,11α-dihydro-17β-hydroxy-17α-[4-(1-oxo-2-methylpropoxy)-1-butenyl]-4'H-naphtho[3',2',1':10,9,11]estr-4-en-3-one], the “Solubility” value [1] is reported as 23 °C.

With CC(C)CC(=O)OCC/C=C\[C@]1(O)CC[C@H]2[C@@H]3CCC4=CC(=O)CC[C@@]45Cc4cc(-c6ccc(C#N)cc6)ccc4[C@@H](C[C@@]21C)[C@@H]35 [Compound 3, (Z)-6'-(4-cyanophenyl)-9,11α-dihydro-17β-hydroxy-17α-[4-(1-oxo-3-methylbutoxy)-1-butenyl]-4'H-naphtho[3',2',1':10,9,11]estr-4-en-3-one] the “Solubility” value [1] was 23 °C, the “stability compared to reference compound 3” value [3] was “significantly improved compared to reference compound 3” and the “stability under strongly basic conditions” value [3] was “very good stability”.

For CC(C)CC(=O)OCC/C=C\[C@]1(O)CC[C@H]2[C@@H]3CCC4=CC(=O)CC[C@@]45Cc4cc(-c6ccc(F)cc6)ccc4[C@@H](C[C@@]21C)[C@@H]35 [Compound 4, (Z)-9,11α-dihydro-6'-(4-fluorophenyl)-17β-hydroxy-17α-[4-(1-oxo-3-methylbutoxy)-1-butenyl]-4'H-naphtho[3',2',1':10,9,11]estr-4-en-3-one], the “Solubility” value [1] was 50 °C, the “stability compared to reference compound 3” value [3] was “significantly improved compared to reference compound 3” and the “stability under strongly basic conditions” value [3] was “very good stability”.

For CC(C)CC(=O)OC/C=C\[C@]1(O)C=C[C@H]2[C@@H]3CCC4=CC(=O)CC[C@@]45Cc4cc(-c6ccc(C#N)cc6)ccc4[C@@H](C[C@@]21C)[C@@H]35 [Compound 5, (Z)-6'-(4-Cyanophenyl)-9,11α-dihydro-17β-hydroxy-17α-[3-(1-oxo-3-methylbutoxy)-1-propenyl]-4'H-naphtho[3',2',1':10,9,11]estra-4,15-dien-3-one], the “Solubility” value [1] was 23 °C.

For CC(C)C(=O)OC/C=C\[C@]1(O)C=C[C@H]2[C@@H]3CCC4=CC(=O)CC[C@@]45Cc4cc(-c6ccc(C#N)cc6)ccc4[C@@H](C[C@@]21C)[C@@H]35 [Compound 6, (Z)-6'-(4-Cyanophenyl)-9,11α-dihydro-17β-hydroxy-17α-[3-(1-oxo-2-methylpropoxy)-1-propenyl]-4'H-naphtho[3',2',1':10,9,11]estra-4,15-dien-3-one], the “Solubility” value [1] was less than 50 °C.

For C[C@]12C[C@@H]3c4ccc(-c5ccc(C#N)cc5)cc4C[C@]45CCC(=O)C=C4CC[C@H]([C@H]35)[C@@H]1CC[C@@]2(O)/C=C\CO [Reference Compound 1, (Z)-6'-(4-cyanophenyl)-9,11α-dihydro-17β-hydroxy-17α-(3-hydroxy-1-propenyl)-4'H-naphtho[3',2',1':10,9,11]estra-4-en-3-one, reference compound], the “Solubility” value [1] was greater than 100 °C.

In the case of CC(C)C(=O)OC/C=C\[C@]1(O)CC[C@H]2[C@@H]3CCC4=CC(=O)CC[C@@]45Cc4cc(-c6ccc(C#N)cc6)ccc4[C@@H](C[C@@]21C)[C@@H]35 [Reference Compound 3, (Z)-6'-(4-cyanophenyl)-9,11α-dihydro-17β-hydroxy-17α-[3-(1-oxo-2-methylpropoxy)-1-propenyl]-4'H-naphtho[3',2',1':10,9,11]estr-4-en-3-one, reference compound], the “Solubility” value [1] is reported as 100 °C.

For CC/C(=C(\c1ccccc1)c1ccc(OCCN(C)C)cc1)c1ccccc1 [tamoxifen], the “response of ZR-75 to tamoxifen” value [5] is listed as “inhibiting growth”.
